Experimental data: PubChem BioAssay AID248 (DTP/NCI, 2004)
“And” between values parts separate entries of the source, which are not always exact repeats. Identical values can stand only once. Inconclusive results and toxic doses are left out.

Tested on: L1210 leukemia ip in BDF1 mice, survival T/C
Assay: NCI In Vivo Anticancer Drug Screen. Data for tumor model L1210 Leukemia (intraperitoneal) in B6D2F1 (BDF1) mice
Details: endpoint: mean survival time, higher = longer survival
Outline: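 Tumor was transplanted into mice, which were then dosed with test compound or vehicle alone. Survival was recorded for each group, and the treated figure was expressed relative to the control figure.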

[1] = dose: 75.0 mg/kg/injection, schedule: Q01DX001 (ip), vehicle: carboxymethylcellulose (CMC)
[2] = dose: 150.0 mg/kg/injection, schedule: Q01DX001 (ip), vehicle: carboxymethylcellulose (CMC)
[3] = dose: 400.0 mg/kg/injection, schedule: Q01DX001 (ip), vehicle: saline

Q: For Cc1cc(C)c(C(=O)OC(C)CNC2CCCCC2)c(C)c1 (configuration not stated), which T/C [1] is on record?
A: The T/C was 96 % of control.

Q: What about the T/C [2] of the same molecule?
A: The T/C was 102 % of control.

Q: How did the T/C (dose: 100.0 mg/kg/injection, schedule: Q01DX001 (ip), vehicle: saline) turn out when CC1(N)COP(=O)(NC2CCCC2)OC1 (configuration not stated) was run?
A: Its T/C is 100 % of control.

Q: And the T/C (dose: 200.0 mg/kg/injection, schedule: Q01DX001 (ip), vehicle: saline)?
A: The T/C was 105 % of control.

Q: What about the T/C [3] of the same molecule?
A: The T/C was 91 % of control.

Q: Which T/C (dose: 31.3 mg/kg/injection, schedule: Q01DX Z (ip), vehicle: saline) does the source give for c1ccc(CCSc2ncnc3nc[nH]c23)cc1 here?
A: Its T/C is 94 % of control.

Q: What about the T/C (dose: 62.5 mg/kg/injection, schedule: Q01DX Z (ip), vehicle: saline) of the same molecule?
A: Its T/C is 94 % of control.

Q: And the T/C (dose: 100.0 mg/kg/injection, schedule: Q01DX009 (ip), vehicle: saline)?
A: Its T/C is 122 % of control.

Q: What about the T/C (dose: 125.0 mg/kg/injection, schedule: Q01DX Z (ip), vehicle: saline) of the same molecule?
A: The T/C was 97 % of control.

Q: And the T/C (dose: 175.0 mg/kg/injection, schedule: Q01DX001 (ip), vehicle: saline)?
A: The T/C was 100 % of control.

Q: And the T/C (dose: 250.0 mg/kg/injection, schedule: Q01DX Z (ip), vehicle: saline)?
A: The T/C was 100 % of control and 101 % of control.

Q: What about the T/C (dose: 265.0 mg/kg/injection, schedule: Q01DX001 (ip), vehicle: saline) of the same molecule?
A: Its T/C is 93 % of control.

Q: What about the T/C (dose: 340.0 mg/kg/injection, schedule: Q01DX009 (ip), vehicle: saline) of the same molecule?
A: The T/C was 159 % of control.

Q: And the T/C [3]?
A: The T/C was 108 % of control.

Q: And the T/C (dose: 500.0 mg/kg/injection, schedule: Q01DX Z (ip), vehicle: saline)?
A: Its T/C is 111 % of control.

Q: What about the T/C (dose: 600.0 mg/kg/injection, schedule: Q01DX001 (ip), vehicle: saline) of the same molecule?
A: Its T/C is 101 % of control.

Q: And the T/C (dose: 1000.0 mg/kg/injection, schedule: Q01DX Z (ip), vehicle: saline)?
A: The T/C was 117 % of control.

Q: O=C(O)c1cc(C(F)(F)F)nc2c1ccc1ccccc12 was tested. Which T/C (dose: 75.0 mg/kg/injection, schedule: Q01DX001 (ip), vehicle: saline) did it give?
A: The T/C was 98 % of control.

Q: And the T/C (dose: 150.0 mg/kg/injection, schedule: Q01DX001 (ip), vehicle: saline)?
A: The T/C was 98 % of control.

Q: CCOc1cccc(OC(C)=O)c1 was tested. Which T/C [1] did it give?
A: Its T/C is 103 % of control.

Q: What about the T/C [2] of the same molecule?
A: Its T/C is 90 % of control.

Q: What does the source list for c1ccc(C2=C(c3ccccc3)C23SCCS3)cc1?
A: T/C (dose: 100.0 mg/kg/injection, schedule: Q01DX009 (ip), vehicle: Klucel (hydroxypropylcellulose) (HPC)): 101 % of control; T/C (dose: 100.0 mg/kg/injection, schedule: Q04DX003 (ip), vehicle: Klucel (hydroxypropylcellulose) (HPC)): 94 % of control; T/C (dose: 200.0 mg/kg/injection, schedule: Q01DX009 (ip), vehicle: Klucel (hydroxypropylcellulose) (HPC)): 97 % of control; T/C (dose: 200.0 mg/kg/injection, schedule: Q04DX003 (ip), vehicle: Klucel (hydroxypropylcellulose) (HPC)): 100 % of control; T/C (dose: 400.0 mg/kg/injection, schedule: Q01DX009 (ip), vehicle: Klucel (hydroxypropylcellulose) (HPC)): 98 % of control; T/C (dose: 400.0 mg/kg/injection, schedule: Q04DX003 (ip), vehicle: Klucel (hydroxypropylcellulose) (HPC)): 96 % of control
